Assay results reported in US8283361B2 (AstraZeneca AB, priority 2008, dated 2012).

These molecules were tested against S. aureus GyrB ATPase (Staphylococcus aureus, UniProt P0A0K8) (assay: biochemical). Settings: compound at 1 μM; one value per test if tested more than once; 1 µM.
Method: S. aureus GyrB ATPase Inhibition Activity: Compounds may be tested for inhibition of S. aureus GyrB ATPase activity using an ammonium molybdate/malachite green-based phosphate detection assay (Lanzetta, P. A., L. J. Alvarez, P. S. Reinach, and O. A. Candia, 1979, 100: 95-97). Assays can be performed in multiwell plates in 30 μl reactions containing: 50 mM Hepes buffer pH 7.5, 75 mM ammonium acetate, 8.0 mM magnesium chloride, 0.5 mM ethylenediaminetetraacetic acid, 5% glycerol, 1.0 mM 1,4-Dithio-DL-threitol, 200 nM bovine serum albumin, 1.0 μg/m1 sheared salmon sperm DNA, 250 pM E. coli GyrA, 250 pM S. aureus GyrB, 250 μM ATP, and compound in dimethylsulfoxide. Reactions can be quenched with 30 μl of ammonium molybdate/malachite green detection reagent containing 1.2 mM malachite green hydrochloride, 8.5 mM ammonium molybdate tetrahydrate, and 1 M hydrochloric acid. […] An IC50 measurement of compound potency for each compound can be determined from reactions performed in the presence of 10 different compound concentrations.

Chain of S. aureus GyrB ATPase (P0A0K8 whole entry): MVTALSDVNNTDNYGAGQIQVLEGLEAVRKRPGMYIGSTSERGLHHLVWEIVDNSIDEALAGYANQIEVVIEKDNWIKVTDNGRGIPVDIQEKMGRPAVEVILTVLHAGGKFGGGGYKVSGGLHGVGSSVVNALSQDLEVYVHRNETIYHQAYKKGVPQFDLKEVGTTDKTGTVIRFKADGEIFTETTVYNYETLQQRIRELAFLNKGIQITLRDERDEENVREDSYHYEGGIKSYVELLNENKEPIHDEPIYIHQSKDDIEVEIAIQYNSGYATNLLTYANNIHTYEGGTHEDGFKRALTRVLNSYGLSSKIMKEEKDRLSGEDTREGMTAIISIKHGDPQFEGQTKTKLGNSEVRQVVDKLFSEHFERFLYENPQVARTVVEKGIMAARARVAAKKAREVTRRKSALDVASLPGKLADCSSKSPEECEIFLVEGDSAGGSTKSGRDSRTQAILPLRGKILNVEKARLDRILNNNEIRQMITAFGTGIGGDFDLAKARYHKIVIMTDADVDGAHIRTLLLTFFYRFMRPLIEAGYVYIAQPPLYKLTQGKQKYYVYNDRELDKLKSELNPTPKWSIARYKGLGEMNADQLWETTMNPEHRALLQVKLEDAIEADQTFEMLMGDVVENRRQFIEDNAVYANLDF
Chain of S. aureus GyrB ATPase (P0AES4 whole entry, further chain): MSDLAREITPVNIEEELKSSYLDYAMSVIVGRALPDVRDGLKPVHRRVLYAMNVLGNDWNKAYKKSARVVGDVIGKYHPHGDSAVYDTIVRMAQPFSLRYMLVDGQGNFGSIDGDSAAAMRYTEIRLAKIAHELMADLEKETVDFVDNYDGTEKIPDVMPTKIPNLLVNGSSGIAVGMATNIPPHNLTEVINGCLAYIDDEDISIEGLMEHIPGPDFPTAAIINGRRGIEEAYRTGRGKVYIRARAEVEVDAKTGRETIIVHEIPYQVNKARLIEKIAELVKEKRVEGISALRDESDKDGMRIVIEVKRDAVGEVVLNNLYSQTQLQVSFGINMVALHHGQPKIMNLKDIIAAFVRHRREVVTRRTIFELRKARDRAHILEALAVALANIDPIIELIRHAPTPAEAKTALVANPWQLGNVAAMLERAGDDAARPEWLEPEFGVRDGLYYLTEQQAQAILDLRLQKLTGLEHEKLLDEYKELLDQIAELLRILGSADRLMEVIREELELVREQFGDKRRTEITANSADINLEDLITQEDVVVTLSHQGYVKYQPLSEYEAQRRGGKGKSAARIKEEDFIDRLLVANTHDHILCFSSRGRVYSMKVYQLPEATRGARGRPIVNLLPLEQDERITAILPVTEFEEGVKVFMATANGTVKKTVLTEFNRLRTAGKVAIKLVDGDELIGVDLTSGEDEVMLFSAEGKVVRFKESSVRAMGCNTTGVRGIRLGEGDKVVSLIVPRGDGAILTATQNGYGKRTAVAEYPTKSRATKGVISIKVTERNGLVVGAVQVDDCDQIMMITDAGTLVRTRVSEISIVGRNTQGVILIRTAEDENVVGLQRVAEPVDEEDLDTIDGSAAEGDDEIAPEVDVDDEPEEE

Row | SMILES | % Inhibition of S. aureus GyrB ATPase [%]
1 | CCNC(=O)Nc1cc(-c2nc(C(F)(F)F)cs2)c(-c2ccc3c(c2)c(=O)c(C(=O)O)cn3CCOC)cn1 [Example 1, 6-(6-(3-Ethylureido)-4-(4-(trifluoromethyl)thiazol-2-yl)pyridin-3-yl)-1-(2-methoxyethyl)-4-oxo-1,4-dihydroquinoline-3-carboxylic acid] | 104

Same assay, conditions: compound at 1 μM; one value per test if tested more than once; read-out: % Inhibition of S. aureus GyrB ATPase

Row | SMILES | inhibition at 1 µM [%]
2 | CCNC(=O)Nc1cc(-c2nc(C(F)(F)F)cs2)c(-c2ccc3c(c2)c(=O)c(C(=O)O)cn3[C@@H]2CCCC[C@@H]2O)cn1 (relative stereo) [Example 276, 6-(6-(3-ethylureido)-4-(4-(trifluoromethyl)thiazol-2-yl)pyridin-3-yl)-1-(cis-2-hydroxycyclohexyl)-4-oxo-1,4-dihydroquinoline-3-carboxylic acid] | 106
3 | CCNC(=O)Nc1cc(-c2nc(C(F)(F)F)cs2)c(-c2ccc3c(c2)c(=O)c(C(=O)O)cn3[C@H]2CNC[C@@H]2O)cn1 (relative stereo) [Example 310, trans 6-(6-(3-ethylureido)-4-(4-(trifluoromethyl)thiazol-2-yl)pyridin-3-yl)-1-(4-hydroxypyrrolidin-3-yl)-4-oxo-1,4-dihydroquinoline-3-carboxylic acid] | 106
4 | CCNC(=O)Nc1cc(-c2nc(C(F)(F)F)cs2)c(-c2ccc3c(c2)c(=O)c(C(=O)O)cn3CCOC)cn1 [Example 1, 6-(6-(3-Ethylureido)-4-(4-(trifluoromethyl)thiazol-2-yl)pyridin-3-yl)-1-(2-methoxyethyl)-4-oxo-1,4-dihydroquinoline-3-carboxylic acid] | 100
5 | CCNC(=O)Nc1cc(-c2nc(-c3ccccc3)cs2)c(-c2ccc3c(c2)c(=O)c(C(=O)O)cn3CCOC)cn1 [Example 2, 6-(6-(3-ethylureido)-4-(4-phenylthiazol-2-yl)pyridin-3-yl)-1-(2-methoxyethyl)-4-oxo-1,4-dihydroquinoline-3-carboxylic acid] | 100
6 | CCNC(=O)Nc1cc(-c2nc(C(F)(F)F)cs2)c(-c2ccc3c(c2)c(=O)c(C(=O)O)cn3C(COC)COC)cn1 [Example 4, 1-(1,3-dimethoxypropan-2-yl)-6-(6-(3-ethylureido)-4-(4-(trifluoromethyl)thiazol-2-yl)pyridin-3-yl)-4-oxo-1,4-dihydroquinoline-3-carboxylic acid] | 98
7 | CCNC(=O)Nc1cc(-c2nc(C(F)(F)F)cs2)c(-c2ccc3c(c2)c(=O)c(C(=O)O)cn3CC)cn1 [Example 10, 1-ethyl-6-(6-(3-ethylureido)-4-(4-trifluoromethylthiazol-2-yl)pyridin-3-yl)-4-oxo-1,4-dihydroquinoline-3-carboxylic acid] | 99
8 | CCNC(=O)Nc1cc(-c2nc(C(F)(F)F)cs2)c(-c2cc3c4c(c2)c(=O)c(C(=O)O)cn4CCO3)cn1 [Example 11, 9-(6-(3-ethylureido)-4-(4-trifluoromethylthiazol-2-yl)pyridin-3-yl)-7-oxo-3,7-dihydro-2H-[1,4]oxazino[2,3,4-ij]quinoline-6-carboxylic acid] | 102
9 | CCNC(=O)Nc1cc(-c2nc(C(F)(F)F)cs2)c(-c2ccc3c(c2)c(=O)c(C(=O)O)cn3CCCOC)cn1 [Example 12, 6-(6-(3-ethylureido)-4-(4-(trifluoromethyl)thiazol-2-yl)pyridin-3-yl)-1-(3-methoxypropyl)-4-oxo-1,4-dihydroquinoline-3-carboxylic acid] | 93
10 | CCNC(=O)Nc1cc(-c2nc(CC)cs2)c(-c2ccc3c(c2)c(=O)c(C(=O)O)cn3CC)cn1 [Example 13, 1-ethyl-6-(6-(3-ethylureido)-4-(4-ethylthiazol-2-yl)pyridin-3-yl)-4-oxo-1,4-dihydroquinoline-3-carboxylic acid] | 98
11 | CCNC(=O)Nc1cc(-c2nc(-c3ccccc3)cs2)c(-c2ccc3c(=O)c(C(=O)O)cn(CC)c3c2)cn1 [Example 15, 1-ethyl-7-(6-(3-ethylureido)-4-(4-phenylthiazol-2-yl)pyridin-3-yl)-4-oxo-1,4-dihydroquinoline-3-carboxylic acid] | 101
12 | CCNC(=O)Nc1cc(-c2nc(-c3ccccc3)cs2)c(-c2ccc3c(c2)c(=O)c(C(=O)O)cn3CC)cn1 [Example 16, 1-ethyl-6-(6-(3-ethylureido)-4-(4-phenylthiazol-2-yl)pyridin-3-yl)-4-oxo-1,4-dihydroquinoline-3-carboxylic acid] | 101
13 | CCNC(=O)Nc1cc(-c2nc(-c3ccccc3)cs2)c(-c2cc3c4c(c2)c(=O)c(C(=O)O)cn4CCO3)cn1 [Example 17, 9-(6-(3-ethylureido)-4-(4-phenylthiazol-2-yl)pyridin-3-yl)-7-oxo-3,7-dihydro-2H-[1,4]oxazino[2,3,4-ij]quinoline-6-carboxylic acid] | 103
14 | CCNC(=O)Nc1cc(-c2nc(C(F)(F)F)cs2)c(-c2ccc3c(c2)c(=O)c(C(=O)O)cn3CCN(C)C)cn1 [Example 18, 1-(2-(dimethylamino)ethyl)-6-(6-(3-ethylureido)-4-(4-(trifluoromethyl)thiazol-2-yl)pyridin-3-yl)-4-oxo-1,4-dihydroquinoline-3-carboxylic acid] | 98
15 | CCNC(=O)Nc1cc(-c2nc(C(F)(F)F)cs2)c(-c2ccc3c(c2)c(=O)c(C(=O)O)cn3CCO)cn1 [Example 19, 6-(6-(3-Ethylureido)-4-(4-(trifluoromethyl)thiazol-2-yl)pyridin-3-yl)-1-(2-hydroxyethyl)-4-oxo-1,4-dihydroquinoline-3-carboxylic acid] | 98
16 | CCNC(=O)Nc1cc(-c2nc(C(F)(F)F)cs2)c(-c2ccc3c(c2)c(=O)c(C(=O)O)cn3C2CC2)cn1 [Example 20, 1-Cyclopropyl-6-(6-(3-ethylureido)-4-(4-(trifluoromethyl)thiazol-2-yl)pyridin-3-yl)-4-oxo-1,4-dihydroquinoline-3-carboxylic acid] | 96
17 | CCNC(=O)Nc1cc(-c2nc(C(F)(F)F)cs2)c(-c2ccc3c(c2)c(=O)c(C(=O)O)cn3C(C)C)cn1 [Example 21, 6-(6-(3-Ethylureido)-4-(4-(trifluoromethyl)thiazol-2-yl)pyridin-3-yl)-1-isopropyl-4-oxo-1,4-dihydroquinoline-3-carboxylic acid] | 98
18 | CCNC(=O)Nc1cc(-c2nc(C(F)(F)F)cs2)c(-c2ccc3c(=O)c(C(=O)O)cn(C)c3c2)cn1 [Example 22, 7-(6-(3-Ethylureido)-4(4-(trifluoromethyl)thiazol-2-yl)pyridin-3-yl)-1-methyl-4-oxo-1,4-dihydroquinoline-3-carboxylic acid] | 99
19 | CCNC(=O)Nc1cc(-c2nc(C(F)(F)F)cs2)c(-c2ccc3c(=O)c(C(=O)O)c[nH]c3c2)cn1 [Example 23, 7-(6-(3-Ethylureido)-4-(4-(trifluoromethyl)thiazol-2-yl)pyridin-3-yl)-4-oxo-1,4-dihydroquinoline-3-carboxylic acid] | 101
20 | CCNC(=O)Nc1cc(-c2nc(C(F)(F)F)cs2)c(-c2ccc3c(c2)c(=O)c(C(=O)O)cn3C2CN(C)C2)cn1 [Example 24, 6-(6-(3-ethylureido)-4-(4-(trifluoromethyl)thiazol-2-yl)pyridin-3-yl)-1-(1-methylazetidin-3-yl)-4-oxo-1,4-dihydroquinoline-3-carboxylic acid] | 99
21 | CCNC(=O)Nc1cc(-c2nc(C(F)(F)F)cs2)c(-c2ccc3c(=O)c(C(=O)O)cn(CCC(C)C)c3c2)cn1 [Example 25, 7-{6-[(ethylcarbamoyl)amino]-4-[4-(trifluoromethyl)-1,3-thiazol-2-yl]pyridin-3-yl}-1-(3-methylbutyl)-4-oxo-1,4-dihydroquinoline-3-carboxylic acid] | 99
22 | CCCn1cc(C(=O)O)c(=O)c2ccc(-c3cnc(NC(=O)NCC)cc3-c3nc(C(F)(F)F)cs3)cc21 [Example 27, 7-{6-[(ethylcarbamoyl)amino]-4-[4-(trifluoromethyl)-1,3-thiazol-2-yl]pyridin-3-yl}-4-oxo-1-propyl-1,4-dihydroquinoline-3-carboxylic acid] | 99
23 | CCNC(=O)Nc1cc(-c2nc(C(F)(F)F)cs2)c(-c2ccc3c(=O)c(C(=O)O)cn(Cc4ccccc4)c3c2)cn1 [Example 28, 1-benzyl-7-{6-[(ethylcarbamoyl)amino]-4-[4-(trifluoromethyl)-1,3-thiazol-2-yl]pyridin-3-yl}-4-oxo-1,4-dihydroquinoline-3-carboxylic acid] | 97
24 | CCNC(=O)Nc1cc(-c2nc(C(F)(F)F)cs2)c(-c2ccc3c(=O)c(C(=O)O)cn(CCO)c3c2)cn1 [Example 30, 7-{6-[(ethylcarbamoyl)amino]-4-[4-(trifluoromethyl)-1,3-thiazol-2-yl]pyridin-3-yl}-1-(2-hydroxyethyl)-4-oxo-1,4-dihydroquinoline-3-carboxylic acid] | 95
25 | CCNC(=O)Nc1cc(-c2nc(C(F)(F)F)cs2)c(-c2ccc3c(=O)c(C(=O)O)cn(CC4CC4)c3c2)cn1 [Example 32, 1-(cyclopropylmethyl)-7-{6-[(ethylcarbamoyl)amino]-4-[4-(trifluoromethyl)-1,3-thiazol-2-yl]pyridin-3-yl}-4-oxo-1,4-dihydroquinoline-3-carboxylic acid] | 98

Same assay, conditions: read-out: % Inhibition of S. aureus GyrB ATPase

Row | SMILES | inhibition at 1 µM [%]
26 | CCNC(=O)Nc1cc(-c2nc(C(F)(F)F)cs2)c(-c2ccc3c(c2)c(=O)c(C(=O)O)cn3CCCN2CCCC2=O)cn1 [Example 7, 6-(6-(3-ethylureido)-4-(4-(trifluoromethyl)thiazol-2-yl)pyridin-3-yl)-4-oxo-1-(3-(2-oxopyrrolidin-1-yl)propyl)-1,4-dihydroquinoline-3-carboxylic acid sodium] | 100
